Paper PMC10818454, “The Development of an Oral Solution Containing Nirmatrelvir and Ritonavir and Assessment of Its Pharmacokinetics and Stability” (Pharmaceutics, 2024)
Converted amounts (≈) assume the structure as drawn. Like-named read-outs stand apart in the source and are kept apart here.

How the values were obtained:
[1] = Recrystallization inhibition by surfactants (solvent shift supersaturation); format: physicochemical; settings: 180 min
Protocol: The solvent shift method was used to create supersaturation. […] The solution was mixed at 50 r/min and 37 °C. A 3 mL sample of the solution was obtained at predetermined time intervals for measurement and supplemented with an equal volume of fresh medium. […] All tests were performed in triplicate.
Particle size measurements were performed at different time points using a Malvern Nano ZSP instrument (Malvern, UK). All tests were performed at 25 °C.

[2] = cited from earlier work
SARS-CoV-2 Mpro = test system: SARS-CoV-2 Mpro; design: method as in PMID 20937904; settings: cited from earlier work
[3] = Solubility in aqueous solutions of different surfactants (0.2% m/v); settings: vs no surfactant
[4] = design: method as in PMID 36015346; settings: cited from earlier work
[5] = Equilibrium solubility in water and buffers (saturated shake-flask, 37 °C, 24 h); format: physicochemical
Protocol: The solubility of active pharmaceutical ingredients (API) in water and buffers with various pH values (pH 1.2–pH 7.4) was investigated to guide formulation screening. The equilibrium solubility method was performed based on the saturated shake-flask solubility technique. An excess of each API was added into volumetric flasks containing the medium and placed in a thermostatic shaking chamber (HNY-2102C, Tianjin, China) for 24 h of continuous shaking (150 r/min) at 37 °C. The supernatant was filtered through a 0.45 μm PTFE filter membrane, and then an equal amount of methanol was added to prevent API precipitation. The concentrations were quantified using HPLC. Content analysis was performed using an HPLC system (Thermo Fisher Scientific, Waltham, MA, USA) using methanol:water (88:12, v/v) as the mobile phase. The injection volume of the filtered sample was 10 µL. Separation was performed using an Agilent C18 column (4.60 mm × 250 mm, 5 μm) with a mobile-phase flow rate of 1.0 mL/min. The detection wavelength was set at 203 nm.

[6] = Solubility in organic solvents; format: physicochemical; settings: organic solvent or mixture
Protocol: The solubility of NRV in organic solvents, including ethanol, propylene glycol, and ethyl acetate, was tested.

**Q.** Which “Concentration of supersaturated solution during the experimental period” value ([1]; with HCO and Tween, p < 0.001 vs no surfactant) does the source give for `CC(C)c1nc(CN(C)C(=O)N[C@H](C(=O)N[C@@H](Cc2ccccc2)C[C@H](O)[C@H](Cc2ccccc2)NC(=O)OCc2cncs2)C(C)C)cs1` [RTV, 10-Hydroxy-2-methyl-5-(1-methylethyl)-1-[2-(1methylethyl)-4-thiazolyl]-3,6-dioxo-8,11-bis(phenylmethyl)-2,4,7,12-tetraazatridecan-13-oic acid, 5-thiazolylmethyl ester, [5S-(5R*,8R*,10R*,11R*)]] here?
**A.** effectively sustained

**Q.** And the “BCS classification (Table S1)” value ([2]; ref 1–3 (supplement))?
**A.** BCS II

**Q.** And the “Activity against SARS-CoV-2 Mpro” value (SARS-CoV-2 Mpro)?
**A.** inactive

**Q.** With `CC(C)(C)[C@H](NC(=O)C(F)(F)F)C(=O)N1C[C@H]2[C@@H]([C@H]1C(=O)N[C@H](C#N)C[C@@H]1CCNC1=O)C2(C)C` [NRV, (1R,2S,5S)-N-((1S)-1-Cyano-2-((3S)-2-oxopyrrolidin-3-yl)ethyl)-3-((2S)-3,3-dimethyl-2-(2,2,2-trifluoroacetamido)butanoyl)-6,6-dimethyl-3-azabicyclo [3.1.0] hexane-2-carboxamide] as the compound, how does the “Change of concentration of supersaturated solution vs original concentration” value ([1]; aqueous surfactant solutions, 37 °C) read?
**A.** no significant alteration

**Q.** And the “Change of solubility in the presence of poloxamer” value [3]?
**A.** no significant change

**Q.** And the “Change of solubility in the presence of HCO and Tween” value ([3]; p < 0.05)?
**A.** increased

**Q.** What about the “Stability under oxidative and photolytic conditions” value [4] of the same compound?
**A.** stable

**Q.** What about the “Stability under strongly acidic and alkaline conditions” value [4] of the same compound?
**A.** hydrolytic

**Q.** What about the BCS class [2] of the same compound?
**A.** II/IV

**Q.** What about the “Logp (Table S1)” value ([2]; predictive, ref 1–3 (supplement)) of the same compound?
**A.** 0.845

**Q.** And the “BCS classification (Table S1)” value ([2]; ref 1–3 (supplement))?
**A.** BCS II / IV

**Q.** And the “Solubility in words (Table S1)” value ([2]; ref 1–3 (supplement))?
**A.** low solubility in water and buffered aqueous media

**Q.** And the solubility at 24 h ([5]; aqueous buffer, thermodynamic from solid, pH 2.0, 37 °C, read-out: Solubility (concentration, mean ± SD))?
**A.** 983.2 ± 5.4 µg/mL (≈ 1970 µM)

**Q.** And the solubility at 24 h ([5]; aqueous buffer, thermodynamic from solid, pH 3.8, 37 °C, read-out: Solubility (concentration, mean ± SD))?
**A.** 974.7 ± 4.8 µg/mL (≈ 1950 µM)

**Q.** What about the solubility at 24 h ([5]; aqueous buffer, thermodynamic from solid, pH 4.5, 37 °C, read-out: Solubility (concentration, mean ± SD)) of the same compound?
**A.** 973.5 ± 5.3 µg/mL (≈ 1950 µM)

**Q.** What about the solubility at 24 h ([5]; aqueous buffer, thermodynamic from solid, pH 6.8, 37 °C, read-out: Solubility (concentration, mean ± SD)) of the same compound?
**A.** 957.8 ± 7.5 µg/mL (≈ 1920 µM)

**Q.** What about the solubility at 24 h ([5]; aqueous buffer, thermodynamic from solid, pH 7.4, 37 °C, read-out: Solubility (concentration, mean ± SD)) of the same compound?
**A.** 998.8 ± 6.2 µg/mL (≈ 2000 µM)

**Q.** What about the solubility at 24 h ([5]; buffers pH 1.2–8.0, read-out: Solubility in each buffer) of the same compound?
**A.** 950 to 1000 µg/mL (≈ 1900 to 2000 µM)

**Q.** And the solubility at 24 h ([5]; thermodynamic from solid, pH 1.2, 37 °C, read-out: Solubility (concentration, mean ± SD))?
**A.** 997.7 ± 6.5 µg/mL (≈ 2000 µM)

**Q.** And the solubility at 24 h ([5]; water, 37 °C, read-out: Solubility in water)?
**A.** 953.1 ± 7.6 µg/mL (≈ 1910 µM)

**Q.** What about the solubility ([6]; ethanol, read-out: Solubility in ethanol (crude concentration)) of the same compound?
**A.** 16500 to 33000 µg/mL (≈ 33000 to 66100 µM)

**Q.** What about the solubility ([6]; ethyl acetate, read-out: Solubility in ethyl acetate (crude concentration)) of the same compound?
**A.** > 57000 µg/mL

**Q.** What about the solubility ([6]; propylene glycol, read-out: Solubility in propylene glycol (crude concentration)) of the same compound?
**A.** < 1600 µg/mL
